Test results reported in US20240150289A1, “CRYSTALLINE CARBAZOLE DERIVATIVE” (Raziel Therapeutics Ltd., priority 2021, published 2024).
“Also recorded” adds a separate entry of the source.

Experiments:
[1] = Accelerated stability tests of crystalline Compound A Form 1 (storage, HPLC purity and XRPD); format: physicochemical; details: 7 days; for Purity: HPLC
Method: (§1) XRPD analysis was carried out on a PANalytical X'pert Pro with PIXcel detector (128 channels), scanning the samples between 3 and 35° 2θ. The material was gently ground (where required) to release any agglomerates and loaded onto a multi-well plate with Kapton or Mylar polymer film to support the sample. The multi-well plate was then placed into the diffractometer and analyzed using Cu K radiation (α1 λ=1.54060 Å; α2 λ=1.54443 Å; β=1.39225 Å; α1:α2 ratio=0.5) running in transmission mode (step size 0.0130° 2θ, step time 18.87s) using 40 kV/40 mA generator settings. Data were visualized and images generated using the HighScore Plus 4.7 desktop application (PANalytical, 2017). Crystalline Compound A Form 1 was not changed after storage at room temperature for 7 days, storage at 40° C./75% RH for 7 days, or storage at 80° C. for 7 days. Purity was determined by HPLC analysis.

[2] = Long-term stability tests of crystalline Compound A Form 1 (storage, HPLC purity and XRPD); format: physicochemical; details: for Purity: HPLC
Method: as §1, with “25° C/60%RH” for “room temperature”, “36 months or” for “7 days,”, “C/75%RH” for “C./75% RH”, “6 months.” for “7 days, or storage at 80° C. for 7 days.”

[3] = 25° C./60% RH (closed container), 3 months
[4] = 25° C./60% RH (closed container), 6 months
[5] = 25° C./60% RH (closed container), 12 months
[6] = 25° C./60% RH (closed container), 24 months
[7] = 25° C./60% RH (closed container), 36 months
[8] = 40° C./75% RH (closed container), 1 month
[9] = 40° C./75% RH (closed container), 3 months
[10] = 40° C./75% RH (closed container), 6 months

**Q.** With C[N+](C)(C)CCCCCn1c2ccc(Br)cc2c2cc(Br)ccc21.[Cl-] [Compound A Form 1, 5-(3,6-dibromo-9H-carbazol-9-yl)-N,N,N-trimethylpentan-1-aminium chloride Form 1] as the compound, how does the XRPD ([1]; 40° C./75% RH (open vial)) read?
**A.** not changed; also recorded: Unchanged

**Q.** What about the Purity ([1]; 40° C./75% RH (open vial)) of the same compound?
**A.** 99.93%

**Q.** What about the XRPD ([1]; 80° C. (closed vial)) of the same compound?
**A.** not changed; also recorded: Unchanged

**Q.** What about the Purity ([1]; 80° C. (closed vial)) of the same compound?
**A.** 99.93%

**Q.** And the XRPD ([1]; Room Temperature (open vial))?
**A.** not changed; also recorded: Unchanged

**Q.** What about the Purity ([1]; Room Temperature (open vial)) of the same compound?
**A.** 99.93%

**Q.** What about the XRPD [2, 3] of the same compound?
**A.** Unchanged

**Q.** What about the Purity [2, 3] of the same compound?
**A.** 99.7%

**Q.** What about the XRPD [2, 4] of the same compound?
**A.** Unchanged

**Q.** What about the Purity [2, 4] of the same compound?
**A.** 99.7%

**Q.** What about the XRPD [2, 5] of the same compound?
**A.** Unchanged

**Q.** And the Purity [2, 5]?
**A.** 99.7%

**Q.** What about the XRPD [2, 6] of the same compound?
**A.** Unchanged

**Q.** And the Purity [2, 6]?
**A.** 99.7%

**Q.** What about the XRPD [2, 7] of the same compound?
**A.** not changed; also recorded: Unchanged

**Q.** And the Purity [2, 7]?
**A.** 99.7%

**Q.** And the XRPD [2, 8]?
**A.** Unchanged

**Q.** What about the Purity [2, 8] of the same compound?
**A.** 99.7%

**Q.** And the XRPD [2, 9]?
**A.** Unchanged

**Q.** What about the Purity [2, 9] of the same compound?
**A.** 99.7%

**Q.** What about the XRPD [2, 10] of the same compound?
**A.** not changed; also recorded: Unchanged

**Q.** And the Purity [2, 10]?
**A.** 99.8%
